According to paper PMC5697638, “Identification of a Potent Phosphoinositide 3‐Kinase Pan Inhibitor Displaying a Strategic Carboxylic Acid Group and Development of Its Prodrugs” (Chemmedchem, 2017):

Legend:
[1] = tested on: PC3 cells; assay: analysis of apoptosis, Annexin V staining; format: cell-based; conditions: 10 μM, 48 h
Procedure: Analysis of apoptosis: For Annexin V staining of apoptotic cells, PC3 cells were seeded at 4×10^5 cells per 6 cm dish in triplicate. Cells were incubated 48 h in the presence or absence of 10 μM 64 and were then detached with 0.1 % trypsin–EDTA, resuspended in Annexin buffer (10 mM HEPES, pH 7.4, 140 mM NaCl, 2.5 mM CaCl2), and stained for Annexin V (FITC Annexin V #640906, BioLegend, USA). Samples were analyzed by using a FACS‐Calibur flow cytometer (Becton Dickinson Immunocytometry Systems, San Jose, USA).

[2] = metabolic stability in rat liver microsomes (RLM); format: in vitro ADME
Procedure: Twelve esters were prepared (see the Experimental Section for their synthesis and the Supporting Information for chromatographic methods) and evaluated in terms of metabolic stability. For this task, a combined approach based on microsomal and plasmatic stability assays was exploited considering the relevance of the plasmatic and hepatic tissues in esterase activity. Microsomal stability of the selected esters was evaluated by monitoring the disappearance of the substrate incubated in rat liver microsomes (RLM) at 50 μM concentration, in the presence of NADPH. In Table 4, the percentage of the remaining substrate, after incubation (t=60 min), with respect to the initial amount is reported. Overall, the compounds underwent a relevant metabolic transformation, and the substrate depletion ranged from 0 (for 76) to 100 % (for 70). This is mainly due to hydrolysis of the ester function, whereas the metabolites arising from the oxidation catalyzed by the NADPH‐dependent monooxygenase system were negligible from a quantitative point of view. Indeed, the main metabolite formed during the incubation of the esters was corresponding carboxyl derivative 37. […] Moreover, whereas CH2‐pyridin‐4‐yl ester 70 was completely metabolized, corresponding benzyl derivative 65 and piperonyl derivative 72 were more hydrolytically stable, and their residual substrates were 53 and 83 %, respectively. The hydrolytic stability of the selected esters was also evaluated by monitoring the depletion of the substrate incubated at a 50 μM concentration in mouse plasma over a period of 30 min. As expected, the plasmatic metabolic fate of the esters was characterized by the formation of 37 as the only metabolite (see Figure S4). The rate constant k [min^−1], derived for the substrate peak area versus time curve (single‐exponential decay equation—GraphPad Prism software, Inc., San Diego, CA (USA); see Figure S5) was used to calculate the in vitro half‐life t 1/2 [min], and the values are reported in Table 4.
Metabolic stability of PI3K inhibitors in RLM fraction
The standard incubation mixture (500 µL final volume), in 1.5 mL Eppendorf tubes, was carried out in a 50 mM TRIS-HCl buffer (pH 7.4) containing 3.3 mM MgCl2, 1.3 mM NADPNa2, 3.3 mM glucose 6-phosphate, 0.4 Units/mL glucose 6-phosphate dehydrogenase (NADPH regenerating system), acetonitrile as cosolvent (1% of final volume) and 50 µM of substrate. After pre-equilibration of the mixture, an appropriate volume of rat microsomal suspension was added to give a final protein concentration of 1 mg/mL. The mixture was shaken for 1 hour at 37°C and the reaction was quenched by diluting the samples with 500 µL of ice-cold acetonitrile. The samples were then centrifuged at 13,000 rpm for 10 min, and the supernatant was directly injected onto the HPLC column for analysis. Control incubations were performed without microsomes. […]
A Shimadzu HPLC system (Shimadzu, Kyoto, Japan), consisting of two LC-10AD Vp module pumps, an SLC-10A Vp system controller, an SIL-10AD Vp autosampler, and a DGU-14-A on-line degasser was used for the analysis. All the chromatographic separations were performed on a Phenomenex Luna C18 5µm (150 x 4.6 mm i.d.) (Phenomenex srl, Castel Bolognese, Italy) as a stationary phase protected by a Luna C18 SecurityGuard (Phenomenex srl). The SPD-M10Avp photodiode array detector was used to detect the analyte at 254 nm. LC Solution 1.24 software was used to process the chromatograms. Aliquots (20 µL) of supernatants obtained from incubations were injected onto the HPLC system and eluted with a mobile phase (flow rate: 1 mL/min) consisting of solvent A- 0.5% aqueous formic acid solution and solvent B- acetonitrile/methanol 80:20.
The eluants were filtered through a 0.45-µm pore size polyvinylidene difluoride membrane […]
The following gradients programs were used: […]

COC(=O)c1cccc(Cn2cc(-c3cccc4c(=O)cc(N5CCOCC5)[nH]c34)nn2)c1 [Compound 64, Methyl 3‐{[4‐(2‐morpholino‐4‐oxo‐1,4‐dihydroquinolin‐8‐yl)‐1H‐1,2,3‐triazol‐1‐yl]methyl}benzoate]
effect on cell apoptosis [1]: did not show any effect in inducing cell apoptosis | Residual microsomal substrate (t=60 min) ([2]; RLM, 50 μM substrate, with NADPH, LC–UV): 20% | % residual substrate, NADPH (without RLM) ([2]; control incubation without microsomes, 50 μM, 60 min): 100%
